Values quoted from earlier work in patent publication US20230111756A1, “STABLE FORMULATIONS OF PLANTS EXTRACTS AND METHODS OF MAKING THE SAME” (Nulixir Inc., priority 2021, published 2023).
Each block holds one compound with its values, some of them ahead of it.

Conditions: reference solvents n-octanol and water; categorization at pH=7 unless stated otherwise

log P: ~4
Compound: COc1cc2c(c(OC)c1OC)-c1c(cc3c(c1OC)OCO3)CC(C)C(C)C2 (single isomer, unassigned; (-)) [(−)-schisandrin B]

log P: ~2.9
Compound: COc1cc(/C=C/c2ccccc2)oc(=O)c1 [5,6-dehydrokawain]

Compound: COC1=CC(=O)OC(/C=C/c2ccc(OC)cc2)C1 (stereo not shown) [5,6-dihydroyangonin]
log P: ~2.5

Compound: CC1=C(CO)C(=O)O[C@@H]([C@@H](C)[C@H]2CC[C@H]3[C@@H]4C[C@H](Cl)[C@]5(O)[C@@H](O)C=CC(=O)[C@]5(C)[C@H]4CC[C@]23C)C1 [6a-chloro-5b-hydroxywithaferin A]
log P: ~3.2

Compound: COC1=CC(=O)O[C@@H](CCc2ccc3c(c2)OCO3)C1 [7,8-dihydromethysticin]
log P: ~2.2

Compound: COc1ccc(CCc2cc(OC)cc(=O)o2)cc1 [7,8-dihydroyangonin]
log P: ~2.9

Compound: COc1cc(/C=C\c2ccc(OC)c(O)c2)oc(=O)c1 [11-hydroxyyangonin]
log P: ~2.2

Compound: COc1cc2c(c(OC)c1OC)-c1c(cc(OC)c(OC)c1OC)C[C@](C)(O)[C@@H](C)C2 [(+)-schisandrin]
log P: ~5

Compound: COc1cc2c(c(OC)c1OC)-c1c(cc(OC)c(OC)c1OC)C[C@H](C)[C@H](C)C2 [(−)-schisandrin A]
log P: ~3.6

log P: ~3.5
Compound: COc1c2c(cc3c1-c1c(cc4c(c1OC)OCO4)C[C@H](C)[C@H](C)C3)OCO2 [(−)-schisandrin C]

Compound: COc1ccc([C@@]23CCC(=O)C[C@@H]2N(C)CC3)cc1OC [mesembrine]
log P: 1.5

Compound: COc1nc2c(c(=O)n1C)n(C)c(=O)n2C [methylliberine]
log P: ~−0.083

Compound: CC(=O)OC1C=CC(=O)N(C(=O)CCc2ccccc2)C1 (stereo not shown) [pipermethystine]
log P: ~1.8

Compound: COc1cc([C@H]2Oc3cc(O)c4c(=O)c(O)c(-c5ccc(O)cc5)oc4c3O[C@@H]2CO)ccc1O [rhodiolin]
log P: ~2

Compound: COc1cc2c(c(OC)c1OC)-c1c(cc(OC)c(OC)c1OC)C[C@](C)(O)[C@@H](C)C2 [schisandrol A]
log P: ~3.4

Compound: N#C[C@@]1(O[C@@H]2O[C@H](CO)[C@@H](O)[C@H](O)[C@H]2O)C=C[C@@H](O)C1 [tetraphyllin B]
log P: ~−2.5

Compound: (R)-kawain
log P: ~2.7

Compound: bacopaside B
log P: ~2.8

Compound: hericerin
log P: ~6.4

Compound: herinacine A
log P: ~2.5

Compound: schisandroside C
log P: ~1.6

Compound: tortuosomine
log P: 3
